Reference: publication PMC11969438 (Inorganic Chemistry Frontiers, 2025)

Molecular target: T1, albumin (Bos taurus, UniProt P02769)
T1 construct: Serum proteins have a retention span of ∼2–4 min as part of the high-molecular weight fraction with albumin at ∼4 min; tissue Sigma-Aldrich; host or cells: fetal calf serum (whole serum, buffered with 150 mM phosphate buffer pH 7.4)
Test: Albumin binding in fetal calf serum, SEC-ICP-MS
Assay type: in vitro ADME
Settings: 50 μM in FCS, 37 °C, up to 24 h
Protocol: FCS was purchased from Sigma-Aldrich and buffered with 150 mM PB pH 7.4 to guarantee a stable pH. The platinum(IV) complexes were dissolved in 150 mM PB (pH 7.4) at a concentration of 5 mM and diluted 1 : 100 in the buffered serum to obtain a final concentration of 50 μM. The samples were then incubated in an autosampler at 37 °C and analyzed for 24 h. Between each sample, a pure water blank was measured. For SEC-ICP-MS measurements an Agilent 1260 Infinity system coupled to an Agilent 7800 ICP-MS equipped with a dynamic reaction cell was used. Oxygen (purity 5.5, Messer Austria GmbH, Gumpoldskirchen, Austria) was used as a reaction gas.

T1 sequence (P02769 25-607): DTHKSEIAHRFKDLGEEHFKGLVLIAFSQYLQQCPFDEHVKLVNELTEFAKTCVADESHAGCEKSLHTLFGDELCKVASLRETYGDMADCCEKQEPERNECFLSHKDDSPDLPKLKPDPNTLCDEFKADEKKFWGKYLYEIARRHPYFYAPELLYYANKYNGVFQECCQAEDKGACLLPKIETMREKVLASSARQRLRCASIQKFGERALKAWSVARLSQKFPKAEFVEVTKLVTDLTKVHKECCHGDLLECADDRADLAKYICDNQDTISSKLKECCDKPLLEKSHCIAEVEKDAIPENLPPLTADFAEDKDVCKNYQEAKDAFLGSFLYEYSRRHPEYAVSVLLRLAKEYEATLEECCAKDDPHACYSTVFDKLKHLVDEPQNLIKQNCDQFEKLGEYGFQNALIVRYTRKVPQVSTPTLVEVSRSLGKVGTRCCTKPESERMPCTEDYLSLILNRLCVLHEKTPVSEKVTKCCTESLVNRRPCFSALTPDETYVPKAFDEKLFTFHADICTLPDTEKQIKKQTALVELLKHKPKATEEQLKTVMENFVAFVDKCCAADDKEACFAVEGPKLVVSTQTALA

In the case of `COCCOCCOCCOCCNC(=O)[O][Pt-2]12([O]C(=O)CCC(=O)c3cc4cc(OC)c(OC)cc4s3)([NH2+][C@@H]3CCCC[C@H]3[NH2+]1)[O]C(=O)C(=O)[O]2` [Ox-MSA-PEG-Ca, (OC-6-34)-[(1R,2R)-1,2-cyclohexanediamino]-oxalato-[4-(5,6-dimethoxybenzo[b]thiophen-2-yl)-4-oxobutylcarboxylato]-[3,6,9,12-tetraoxatridecan-1-amino]platinum(IV)], the “ability to conjugate to albumin” value is reported as “lacked the ability to conjugate to albumin”.
